Test results reported in PMC8305076, “Comprehensive Evaluation of Biological Effects of Pentathiepins on Various Human Cancer Cell Lines and Insights into Their Mode of Action” (International Journal of Molecular Sciences, 2021).
Like-named read-outs stand apart in the source and are kept apart here.

Legend:
[1] = test system: panel of 14 human cancer cell lines; experiment: crystal violet proliferation assay, whole panel; type: cell-based; design: key to Antiproliferative effect: no impact (0); weak impact (+); strong impact (++); conditions: for GI50: mean over the cell line panel, normoxia, read-out: GI50 CV, mean per compound; for Antiproliferative effect: summary grade
Description: (§1) Distinct MTT cell viability and crystal violet cell proliferation assays were performed to assess the cytotoxicity of the compounds 1–6 on 14 human cancer cell lines. In the viability assay, cells with intact mitochondria and thus active dehydrogenases are competent to convert MTT to the corresponding insoluble formazan. The formazan can be photometrically detected after solubilization and allows for indirect conclusions about the viability of the cells as an IC50 value. In the crystal violet assay, cells are stained by the binding of the dye to the chromatin, thus allowing for a quantification of biomass that remains adherent after a treatment in comparison with a control after a specific time. Potency is defined as the growth inhibitory concentration 50% (GI50).
The antiproliferative effect of the pentathiepins on human cancer cell lines was analyzed by crystal violet assay based on the protocol of a previous publication. […] After dissolving in ethanol, the optical density was measured. Here, 1000 cells (250 for LCLC-103H) in 0.1 mL of medium were seeded per well of a 96 well plate and incubated at standard conditions for 24 h prior to treatment to allow for adhesion of the cells. A serial dilution of the test compounds was prepared in medium, covering final concentrations from 10.0 to 0.04 µM and 0.1 mL of the working solution added to each well in triplicate. Additionally, samples for each cell line were seeded and directly fixed after 24 h to measure the cell density at the beginning of treatment (t0). Fixation was performed by replacing medium with 0.1 mL of a solution containing 1% glutaraldehyde in Dulbecco’s buffer (0.2 g/L KCl, 0.1 g/L MgSO4·7 H2O, 1.55 g/L Na2HPO4·7 H2O, 0.2 g/L KH2HPO4, and 8 g/L NaCl in water) for 20 min. Plates were stored in 0.1 mL of Dulbecco’s buffer until further processing. After 96 h of treatment, the same fixation process was applied to the plates containing cells and test compounds. To stain the cells, 0.1 mL of an aqueous solution of crystal violet (0.02%) was added per well for 20 min, then discarded and the plates afterwards rinsed in clear water for 30 min. The dye was extracted in 50 µL of ethanol per well during 2 h of shaking. The plates were read at λ = 570 nm using a SpectraMax 384plus (Molecular Devices, Sunnyvale, CA, USA), and the proliferation of the treatment conditions was calculated in relation to a solvent control sample after subtracting the background value of the T0-plates. The GI50 (half-maximal growth inhibitory concentration) was calculated via nonlinear regression followed by interpolation of the dose–response graphs in Prism 7 (GraphPad, San Diego, CA, USA). […]

[2] = test system: panel of 14 human cancer cell lines; experiment: MTT cell viability assay, whole panel; type: cell-based; design: key to Cytotoxicity: no impact (0); weak impact (+); strong impact (++); conditions: for Cytotoxicity: summary grade
Description: as §1
In addition to performing the cell viability assay under normoxia (19% atmospheric oxygen), incubations were also conducted under hypoxic conditions, i.e., atmospheric oxygen levels of 1% during the treatment for 48 h. Hypoxia is a favorable condition of the tumor microenvironment that is connected with poor outcome. Therefore, the low oxygen condition mimics better the tumor environment. The biological effect of the pentathiepins under this condition provides insight into their dependency for oxygen, which has been postulated a key component in the proposed mechanism of action (Figure 3). Consistent with the proposed mechanism of action for five of the compounds, potency decreased under hypoxic conditions; in fact for 6, the half-maximal inhibitory concentration exceeded the highest tested concentration of 10 µM in four cell lines (Figure 6, Table S3). […] In contrast to the other compounds, in some cell lines, the cytotoxic effects of 1 were more pronounced under oxygen-reduced incubation conditions (Figure 6), indicating a tangential role of oxygen availability for this pentathiepin. Especially for the breast cancer cell line MCF-7, the cytotoxicity increased substantially, indicated by a decrease of the IC50 from >10.0 µM to about 1.0 µM.
The effect of the pentathiepins on the viability of the cell lines was assessed via an MTT assay, performed as previously described. Healthy and viable cells convert the yellow soluble 3-(4,5-dimethylthiazol-2-yl)-2,5-diphenyltetrazolium bromide to the insoluble purple corresponding formazan, which can be spectrophotometrically measured. For this assay, 5000 cells (1 250 for LCLC-103H) in 0.1 mL of medium were seeded per well of a 96-well plate and incubated at standard conditions for 24 h prior to treatment. A serial dilution of the test compounds was prepared in medium, covering final concentrations from 10.0 to 0.04 µM, and 0.1 mL of the working solution was added to each well in triplicate. After 48 h, 20 µL of a 2.5 mg/mL MTT in PBS solution was pipetted into each well and further incubated for 4 h at standard conditions. Thereafter, medium was replaced with 50 µL DMSO, and the plates were put on a shaker for 5 min and subsequently read at λ = 570 nm, with a SpectraMax 384plus (Molecular Devices, Sunnyvale, CA, USA). The cell viabilities of the treatment conditions were calculated in relation to a solvent control sample. The absolute IC50 was calculated via nonlinear regression followed by interpolation of the dose–response graphs in Prism 7 (GraphPad, San Diego, CA, USA). The IC90 was derived from the IC50 by using the slope factor of the dose–response graph with the tool QuickCalcs from GraphPad (GraphPad Software, San Diego, CA, USA). […]

[3] = Homo sapiens, mean over the cell line panel, hypoxic, read-out: IC50 MTT-H, mean per compound
[4] = Homo sapiens, mean over the cell line panel, normoxic, read-out: IC50 MTT-N, mean per compound
[5] = mean over the cell line panel, normoxic, read-out: IC50 MTT-N, mean per compound

GI50 ([1]; Homo sapiens)	GI50 [1]	Structure (SMILES)	Antiproliferative effect [1]	IC50 [2, 3]	IC50 [2, 4]	IC50 [2, 5]	Cytotoxicity [2]	IC50 ([2]; Homo sapiens, hypoxic conditions, in four cell lines, exceeded highest tested concentration, read-out: half-maximal inhibitory concentration)
333 nM		CCOc1c2c(c3cnc4[nH]c(-c5ccc(OC)cc5)cc4n13)SSSSS2 [Compound 1, 11-Ethoxy-2-(4-methoxyphenyl)-3H-[1,2,3,4,5]pentathiepino[6′,7′:3,4]pyrrolo[1,2-a]pyrrolo[2,3-e]pyrazine]	++	487 nM	720 nM	716 nM	++	
493 nM		CCOc1c2c(c3ccc(C(=O)N4CCCCC4)cn13)SSSSS2 [Compound 2, (6-Ethoxy-[1,2,3,4,5]pentathiepino[6,7-a]indolizin-9-yl)(piperidinyl)methanone]	+	2190 nM	1380 nM		+	
170 nM	174 nM	CCOc1c2c(c3ccc(C(=O)N4CCOCC4)cn13)SSSSS2 [Compound 3, (6-Ethoxy-[1,2,3,4,5]pentathiepino[6,7-a]indolizin-9-yl)(morpholino)methanone]	++	1720 nM	789 nM		++	
322 nM		CCOc1c2c(c3ccc(C(=O)N(CC)CC)cn13)SSSSS2 [Compound 4, 6-Ethoxy-N,N’-diethyl-[1,2,3,4,5]pentathiepino[6,7-a]indolizine-9-carboxamide]	++	2050 nM	1010 nM		++	
267 nM		CCOc1c2c(c3ccc(C(=O)N4CCN(C(=O)c5ccc(F)cc5)CC4)cn13)SSSSS2 [Compound 5, (6-Ethoxy-[1,2,3,4,5]pentathiepino[6,7-a]indolizin-9-yl)(4-(4-fluorobenzoyl)piperazinyl)methanone]	++	1290 nM	839 nM		++	
570 nM	671 nM	CCOc1c2c(c3ccc(C(=O)N4CCN(S(=O)(=O)c5ccc(C)cc5)CC4)cn13)SSSSS2 [Compound 6, (6-Ethoxy-[1,2,3,4,5]pentathiepino[6,7-a]indolizin-9-yl)(4-tosylpiperazinyl)methanone]	+	2460 nM	2360 nM	2360 nM	+	> 10000 nM
